# Results taken from patent US20050222167A1, “9-aminoacridine derivatives and process for the preparation thereof” (priority 2002, published 2005).
# Tests used:
# SKOV-3 (human ovarian) = test: SRB assay, in vitro antitumor effect against human tumor cell lines; type: cell-based; conditions: SK-OV-3, SRB assay, 48 hours
# Protocol: (§1) Experimental 1: In vitro antitumor effect against human tumor cell lines.
# (§2) A. Tumor cell lines: A549 (human non-small lung cell)
# (§3) • SKOV-3 (human ovarian) • HCT-15 (human colon) • XF-498 (human CNS) • SKMEL-2 (human melanoma) B. Method: SRB Assay • a. Human solid tumor cell lines, A549(non-small lung cell), SKMEL-2(melanoma), HCT-15(colon), SKOV-3(ovarian) and XF-498(CNS) were cultured in 5% CO2 incubators using the RPMI 1640 media containing 10% FBS at 37° C., while with transfer-culturing successively once or twice per week. Cell cultures were dissolved in a solution of 0.25% trysin and 3 mmol CDTA PBS(−) to separate the cells sticked on the culture media. • b. 5 103˜2 104 cells were added into each well of 96-well plate and cultured in 5% CO2 incubator at 37° C. for 24 hours. • c. Each sample drug was dissolved in a little DMSO and diluted with the used medium to a prescribed concentration for experiment, while the final concentration of DMSO was adjusted below 0.5%. • d. Medium of each well cultured for 24 hours as above b. was removed by aspiration. Each 200 μl of drug samples prepared in c. was added into each well and the wells were cultured for 48 hours. Tz (time zero) plates were collected at the point of time drugs were added. • e. According to the SRB assay method, cell fixing with TCA, staining with 0.4% SRB solution, washing with 1% acetic acid and elution of dye with 10 mmol Tris solution were carried out on Tz plates and culture-ended plates, and then, OD values were measured at 520 nm. C. Calculation of Result • a. Time zero (Tz) value was determined with measuring the SRB protein value at the point of time drugs were added. • b. Control value (C) was determined with the OD value of an well untreated with drug. • c. Drug-treated test value (T) was determined with the OD value of drug-treated well. • d. Effects of drugs were estimated with growth stimulation, net growth inhibition and net killing calculated from Tz, C and T values. • e. If T≧Tz, cellular response function was calculated by 100×(T−Tz)/(C−Tz), and, if T<Tz, by 100 (T−Tz)/Tz.
# HCT-15 (human colon) = test: as above; type: cell-based; conditions: HCT-15, SRB assay, 48 hours
# Protocol: as §1, §2, §3
# SKMEL-2 (human melanoma) = test: as above; type: cell-based; conditions: SK-MEL-2, SRB assay, 48 hours
# Protocol: as §1, §2, §3
# [1] = test system: A549 (human non-small lung cell); test: as above; type: cell-based; conditions: 48 hours
# Protocol: as §1, §2, §3
# XF-498 (human CNS) = test: as above; type: cell-based; conditions: XF-498, SRB assay, 48 hours
# Protocol: as §1, §2, §3
# [2] = test system: P388 (mouse lymphoid neoplasma cell); test: Dye exclusion assay, in vitro antitumor effects against animal leukemia cells; type: cell-based; conditions: P388, trypan blue dye exclusion, 48 hours, read-out: concentration showing 50% cell growth inhibition (IC50)
# Excerpt: Experimental 2: In Vitro Antitumor Effects Against Animal Leukemia Cells. A. Material:
# Tumor cell lines: P388 (mouse lymphoid neoplasma cell)
# B. Method: Dye Exclusion Assay.
# [3] = Acute toxicity test (LD50), Litchfield-Wilcoxon method; conditions: male, mouse, in vivo; iv, ICR mice, observed 14 days
# Protocol: Experimental 4. Acute Toxicity Test (LD50): a) Method: Litchfield-Wilcoxon Method.
# 6-week-old ICR mice (male 30 2.0 g) were fed freely with solid feed and water at room temperature, […], and at humidity 60 5%. Sample drugs were injected into the abdominal cavities of mice. Each group comprised 6 mice. […] LD50 value was calculated by Litchfield-wilcoxon method.
# Leukemia P388 cells = test: In vivo antitumor effects against mouse leukemia P388 cells; conditions: abdominal cavity, days 1, 5, 9, BDF1 mice with P388
# Protocol: Experimental 3: In Vivo Antitumor Effects Against Mouse Leukemia P388 Cells A. Material of Experiment • BDF1 mice were used. B. Method of Experiment • 1) Leukemia P388 cells being transfer-cultured successively in DBA/2 mouse, were grafted into each mouse of a group comprising 8 mice of 6 week old BDF1 mouse with the dose of 1×10^6 cells/0.1 ml • 2) Sample drugs were dissolved in PBS or suspended in 0.5% tween 80, and then injected into abdominal cavity of mouse at each prescribed concentration on days 1, 5, 9, respectively. • 3) With observation everyday, survival times of tested mice were measured. Antitumor activities was deternimed in such a manner that the increasing ratio (T/C %) of average survival days of drug-treated groups compared with the control group was calculated using the mean survival times of each tested groups.
smiles,measurement,setting,value
"N.N.[Cl][Pt][Cl] [Cisplatin, cisplatin, reference compound]",ED50,SKOV-3 (human ovarian),0.71 µg/mL
same,ED50,HCT-15 (human colon),3.03 µg/mL
same,ED50,SKMEL-2 (human melanoma),0.71 µg/mL
same,ED50,[1],0.81 µg/mL
same,ED50,XF-498 (human CNS),0.77 µg/mL
"CCc1nc(OC)c(NC(=O)N2CCN(c3cc(C)cc(C)c3)CC2)cc1C(=O)NC(C)C(=O)Nc1cc(CO)cc(Nc2c3ccccc3nc3ccccc23)c1 (stereo not shown) [Example 2, 4-(3,5-dimethylphenyl)piperazine-1-carboxylic acid (5-{1-[3-(acridine-9-yl-amino)-5-hydroxymethylphenylcarbamoyl]-ethylcarbamoyl}-6-ethyl-2-methoxypyridine-3-yl)amide]",IC50,[2],0.3 µg/mL
same,LD50 at 14 days,[3],80 mg/kg
same,MST,Leukemia P388 cells; Dose 25 mg/kg,>60.0 days
same,T/C (%),Leukemia P388 cells; Dose 25 mg/kg,>545.5%
same,MST,Leukemia P388 cells; Dose 50 mg/kg,>60.0 days
same,T/C (%),Leukemia P388 cells; Dose 50 mg/kg,>545.5%
same,MST,Leukemia P388 cells; Dose 100 mg/kg,22.0 days
same,T/C (%),Leukemia P388 cells; Dose 100 mg/kg,200.0%
same,ED50,SKOV-3 (human ovarian),0.12 µg/mL
same,ED50,HCT-15 (human colon),0.19 µg/mL
same,ED50,SKMEL-2 (human melanoma),0.01 µg/mL
same,ED50,[1],0.12 µg/mL
same,ED50,XF-498 (human CNS),0.18 µg/mL
"CCc1nc(OC)c(NC(=O)N2CCN(c3cc(OC)cc(OC)c3)CC2)cc1C(=O)NC(C)C(=O)Nc1cc(CO)cc(Nc2c3ccccc3nc3ccccc23)c1 (stereo not shown) [Example 3, 4-(3,5-dimethoxyphenyl)piperazine-1-carboxylic acid (5-{1-[3-(acridine-9-yl-amino)-5-hydroxymethylphenylcarbamoyl]-ethylcarbamoyl}-6-ethyl-2-methoxypyridine-3-yl)amide]",IC50,[2],1 µg/mL
same,LD50 at 14 days,[3],80 mg/kg
same,MST,Leukemia P388 cells; Dose 25 mg/kg,17.0 days
same,T/C (%),Leukemia P388 cells; Dose 25 mg/kg,154.5%
same,MST,Leukemia P388 cells; Dose 50 mg/kg,>60.0 days
same,T/C (%),Leukemia P388 cells; Dose 50 mg/kg,>545.5%
same,MST,Leukemia P388 cells; Dose 100 mg/kg,11.6 days
same,T/C (%),Leukemia P388 cells; Dose 100 mg/kg,100.0%
same,ED50,SKOV-3 (human ovarian),0.19 µg/mL
same,ED50,HCT-15 (human colon),0.13 µg/mL
same,ED50,SKMEL-2 (human melanoma),0.03 µg/mL
same,ED50,[1],0.12 µg/mL
same,ED50,XF-498 (human CNS),0.18 µg/mL
"CCc1nc(OC)c(NC(=O)N2CCN(c3cc(F)cc(F)c3)CC2)cc1C(=O)NC(C)C(=O)Nc1cc(CO)cc(Nc2c3ccccc3nc3ccccc23)c1 (stereo not shown) [Example 4, 4-(3,5-difluorophenyl)piperazine-1-carboxylic acid (5-{1-[3-(acridine-9-yl-amino)-5-hydroxymethylphenylcarbamoyl]-ethylcarbamoyl}-6-ethyl-2-methoxypyridine-3-yl)amide]",IC50,[2],0.9 µg/mL
"CCCc1nc(OC)c(NC(=O)N2CCN(c3cc(OC)cc(OC)c3)CC2)cc1C(=O)NC(C)C(=O)Nc1cc(CO)cc(Nc2c3ccccc3nc3ccccc23)c1 (stereo not shown) [Example 9, 4-(3,5-dimethoxyphenyl)piperazine-1-carboxylic acid (5-{1-[3-(acridine-9-yl-amino)-5-hydroxymethylphenylcarbamoyl]-ethylcarbamoyl}-2-methoxy-6-propylpyridine-3-yl)-amide]",IC50,[2],0.4 µg/mL
same,ED50,SKOV-3 (human ovarian),0.19 µg/mL
same,ED50,HCT-15 (human colon),0.15 µg/mL
same,ED50,SKMEL-2 (human melanoma),0.15 µg/mL
same,ED50,[1],0.24 µg/mL
same,ED50,XF-498 (human CNS),0.15 µg/mL
"CCc1nc(OC)c(NC(=O)N2CCN(c3cc(C)cc(C)c3)CC2)cc1C(=O)NC(C)C(=O)Nc1cc(CO)cc(Nc2c3ccccc3nc3c(C)c(C)ccc23)c1 (stereo not shown) [Example 16, 4-(3,5-dimethylphenyl)piperazine-1-carboxylic acid (5-{1-[3-(3,4-dimethylacridine-9-yl-amino)-5-hydroxymethylphenylcarbamoyl]-ethylcarbamoyl}-6-ethyl-2-methoxypyridine-3-yl)amide]",IC50,[2],0.3 µg/mL
same,ED50,SKOV-3 (human ovarian),0.14 µg/mL
same,ED50,HCT-15 (human colon),0.07 µg/mL
same,ED50,SKMEL-2 (human melanoma),0.02 µg/mL
same,ED50,[1],0.08 µg/mL
same,ED50,XF-498 (human CNS),0.09 µg/mL
"CCc1nc(OC)c(NC(=O)N2CCN(c3cc(C)cc(C)c3)CC2)cc1C(=O)Nc1cc(CO)cc(Nc2c3ccccc3nc3ccccc23)c1 [Example 19, 4-(3,5-dimethylphenyl)-piperazine-1-carboxylic acid{5-[3-(acridine-9-yl-amino)-5-hydroxymethylphenylcarbamoyl]-6-ethyl-2-methoxy-pyridine-3-yl}amide]",ED50,SKOV-3 (human ovarian),0.17 µg/mL
same,ED50,HCT-15 (human colon),0.27 µg/mL
same,ED50,SKMEL-2 (human melanoma),0.18 µg/mL
same,ED50,[1],0.21 µg/mL
same,ED50,XF-498 (human CNS),0.38 µg/mL
